pIC50: −log10 of the molar value.
Key:
[1] = target: T1, Top1-DNA cleavage complexes (Top1cc) (Homo sapiens, UniProt P11387); assay: Plasmid DNA cleavage assay (Top1cc formation); type: biochemical
T1 construct: made in house; host or cells: Sf-9 insect cells (recombinant baculovirus, gift of Prof. James J. Champoux)
T1 sequence (P11387 1-765): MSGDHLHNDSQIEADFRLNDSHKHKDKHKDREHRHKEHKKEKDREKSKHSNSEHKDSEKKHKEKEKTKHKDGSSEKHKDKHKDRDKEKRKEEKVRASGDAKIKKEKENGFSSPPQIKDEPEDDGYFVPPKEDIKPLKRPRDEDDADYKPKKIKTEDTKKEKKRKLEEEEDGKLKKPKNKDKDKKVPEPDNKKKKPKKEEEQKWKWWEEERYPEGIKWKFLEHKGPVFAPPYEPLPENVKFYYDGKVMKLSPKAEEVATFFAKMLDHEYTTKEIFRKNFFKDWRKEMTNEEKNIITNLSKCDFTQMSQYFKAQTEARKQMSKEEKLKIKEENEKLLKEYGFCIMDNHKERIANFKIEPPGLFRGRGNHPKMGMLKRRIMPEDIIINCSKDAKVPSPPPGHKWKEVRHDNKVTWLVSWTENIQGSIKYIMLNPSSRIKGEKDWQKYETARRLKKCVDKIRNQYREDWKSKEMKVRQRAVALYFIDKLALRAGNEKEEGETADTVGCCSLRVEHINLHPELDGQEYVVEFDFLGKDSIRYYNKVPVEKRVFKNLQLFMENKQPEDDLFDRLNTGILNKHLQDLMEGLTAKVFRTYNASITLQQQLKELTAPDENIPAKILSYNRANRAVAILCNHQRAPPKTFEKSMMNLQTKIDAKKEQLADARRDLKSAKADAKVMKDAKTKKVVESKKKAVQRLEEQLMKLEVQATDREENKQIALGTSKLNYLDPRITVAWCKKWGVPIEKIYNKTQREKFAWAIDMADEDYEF
Experimental: Because camptothecin (CPT) stabilizes Top1-DNA cleavable complexes (Top1cc) to inhibit Top1 activity,[3],[5],[37] we investigated compound 8 induced Top1cc formation with the plasmid DNA cleavage assays.[6],[8],[36],[37] Top1 mediated conversion of closed circular DNA (form I) to nicked circular DNA (form II) in the presence of specific inhibitors is referred to as “cleavable complex”. […] To further investigate the impact of compound 8 on preformed Top1cc, we preincubated Top1 with plasmid DNA and CPT (Figure 2B) before the addition of compound 8 in the cleavage assays.
Plasmid DNA cleavage assay was carried out as described previously.[6],[8] For equilibrium cleavage assays, 25-mer duplex of oligonucleotide containing a Top1 binding motif was labeled and annealed as described previously.[13],[36],[38] Samples were analyzed by 12% sequencing gel electrophoresis, dried, and exposed on PhosphorImager screens and imaged with Typhoon FLA 7000 (GE Healthcare, U.K.).

[2] = test system: relaxed pBS (SK+) plasmid DNA; assay: Topoisomerase I unwinding assay (DNA intercalation); settings: m-AMSA and etoposide 50 and 300 μM; compound 8 50, 100, 300 μM
Experimental: Therefore, compound 8 interacts in reversible manner with Top1 to inhibit the plasmid relaxation activity (Figure 1).
The competence of the drug to intercalate into plasmid DNA was determined by Top1 unwinding assay.[36],[44] Assays were performed with 50 fmol of pBluscript (SK+) DNA in the presence or absence of compound 8, m-AMSA, and etoposide at indicated concentrations. Excess of DNA topoisomerase I was reacted with supercoiled plasmid DNA to generate relaxed DNA for the unwinding assays. The relaxed DNA was purified by proteolytic digestion with proteinase K at 37 °C, followed by phenol/chloroform extraction and ethanol precipitation. The unwinding assays were carried out at 37 °C for 15 min with independent compounds and were analyzed by 1% agarose gel as described above.

Top1cc in MCF7 cells = target: T2, Top1cc in MCF7 cells (Homo sapiens, UniProt P11387); assay: Immuno complex of enzyme (ICE) bioassay; type: cell-based
T2 construct: endogenous in cells; host or cells: MCF7 cells
T2 sequence (P11387 2-765 limits assumed): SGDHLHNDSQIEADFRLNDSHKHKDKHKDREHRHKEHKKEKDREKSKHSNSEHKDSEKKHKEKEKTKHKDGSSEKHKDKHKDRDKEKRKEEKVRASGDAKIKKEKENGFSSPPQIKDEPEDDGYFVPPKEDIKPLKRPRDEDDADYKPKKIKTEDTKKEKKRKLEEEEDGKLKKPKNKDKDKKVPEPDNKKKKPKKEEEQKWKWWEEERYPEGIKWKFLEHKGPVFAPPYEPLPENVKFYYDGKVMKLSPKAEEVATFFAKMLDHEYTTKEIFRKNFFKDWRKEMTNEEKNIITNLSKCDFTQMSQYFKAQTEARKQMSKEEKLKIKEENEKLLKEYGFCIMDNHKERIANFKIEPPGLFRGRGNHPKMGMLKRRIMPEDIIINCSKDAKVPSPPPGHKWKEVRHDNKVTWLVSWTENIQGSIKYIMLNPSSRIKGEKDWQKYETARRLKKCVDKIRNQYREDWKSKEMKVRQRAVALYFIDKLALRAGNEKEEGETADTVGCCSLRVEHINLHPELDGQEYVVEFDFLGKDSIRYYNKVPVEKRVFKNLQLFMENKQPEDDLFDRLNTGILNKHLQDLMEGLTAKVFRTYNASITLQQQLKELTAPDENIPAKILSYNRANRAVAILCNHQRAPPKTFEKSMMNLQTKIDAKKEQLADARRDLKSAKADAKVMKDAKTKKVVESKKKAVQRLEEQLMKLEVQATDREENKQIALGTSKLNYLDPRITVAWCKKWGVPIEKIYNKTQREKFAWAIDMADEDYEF
Experimental: Because compound 8 stimulates apoptosis (Figure 4C and Figure 5B), we examined accumulation of apoptotic Top1-DNA complexes in compound 8 treated cells (Figure 4D) by ICE bioassays.[15],[16] Top1cc related to apoptosis is due to secondary DNA modifications and is independent from direct Top1-drug interaction.[15]−[17] […] Therefore, proteasome mediated degradation of Top1 triggers compound 8 induced apoptosis without stabilizing apoptotic Top1-DNA covalent complexes. […] Genomic DNA was prepared and was briefly sonicated. Varying concentrations of DNA were spotted onto nitrocellulose membrane (Millipore, USA) using a slot-blot vacuum system (Biorad, USA). Immunoblotting was carried out with antihuman Top1 antibodies as described.[41]

[3] = Cell survival (MTT) assay, HEK293; type: cell-based; settings: human, HEK293 cells (noncancerous embryonic kidney), read-out: IC50 cytotoxicity
Experimental: Compound 8 was investigated for its cytotoxicity in the cancer cell lines from different tissue origin,[6],[41] as well as in the noncancerous human embryonic kidney cell lines (HEK293) and mouse embryonic fibroblasts (MEFs). […] The MCF7 breast cancer cell lines were most susceptible to compound 8.
Cell survival was assessed by 3-(4,5-dimethylthiazol-2-yl)-2,5-diphenyltetrazolium bromide (MTT) assay as discussed previously.[6] The percent inhibition of viability for each concentration of the compounds was calculated with respect to the control, and IC50 values were estimated.

## CN(C)c1ccc(-c2c3nc(c(-c4ccc(N(C)C)cc4)c4ccc([nH]4)c(-c4ccc(C(=O)O)cc4)c4nc(c(-c5ccc(C(=O)O)cc5)c5ccc2[nH]5)C=C4)C=C3)cc1 [Compound 8, 5,10-Bis(4-carboxyphenyl)-15,20-bis(4-dimethylaminophenyl)porphyrin]
[1]; Top1 preincubated with plasmid DNA and CPT before addition of compound, dose dependent
  Effect on CPT-induced preformed Top1cc in plasmid DNA cleavage assay: completely abrogated CPT-induced Top1cc
[1]; recombinant human Top1 100 fmol, pBS (SK+) DNA, 37 °C, 30 min
  Stabilization of Top1cc in plasmid DNA cleavage assay: failed to stabilize Top1cc
[2]
  Negative supercoiling of relaxed plasmid DNA (intercalation): failed to induce negative supercoiling of the relaxed plasmid DNA
Top1cc in MCF7 cells; 20 μM, 12 h
  Top1 in DNA-containing fractions (apoptotic Top1cc): absence of Top1 in the DNA-containing fractions
Top1cc in MCF7 cells; CPT 10 μM 6 h before addition of compound 8 20 μM for 6 h
  Effect on CPT-induced cellular Top1-DNA complexes: abrogates CPT-induced cellular Top1-DNA complexes
[3]
  pIC50: < 5.00

Source: PMC5808360, “Neutral Porphyrin Derivative Exerts Anticancer Activity by Targeting Cellular Topoisomerase I (Top1) and Promotes Apoptotic Cell Death without Stabilizing Top1-DNA Cleavage Complexes” (Journal of Medicinal Chemistry, 2017)
